SMILES strings stand for the structures. Peptide text beside a SMILES is read from it. * marks the point of attachment. Cbz = O=C(OCc1ccccc1)*

The test system of assay [1] is endogenous p21 protein. Description: p21 ELISA of endogenous p21 protein. It is filed as cell-based. Particulars: dose-response, normalized to DMSO, FIG. 10B. The source says:
Luciferase values are normalized to the control DMSO (set to 1). […] ELISA values are normalized to the control DMSO.
The p21-Rluc degradation assay was next transposed to a HTS-compatible format in 384-well plates and used to screen the Institut de Recherche en Immunologie et Cancerologie's (IRIC's) collection of 112,900 compounds (FIG. 6) derived from the Chembridge DIVERset™ screening library, the Maybridge Hitfinder™ screening library, the Specs screening library, the Microsource […]™ collection, the Biomol/Enzo Life Sciences Screen-Well™ library, the Prestwick Chemical Library™ library and the Sigma LOPAC^1280™. The potent proteasome inhibitor MG-132 was used as positive control. The mean increase of p21-Rluc signal by all positive controls across the screen was 3.062 (FIG. 6). This value was set at 100% stabilization and used as comparison reference for test compounds. From the primary screen, 686 compounds that increase the p21-Rluc luminescence signal by at least 1.7-fold and 4 SDs above baseline (DMSO control) were identified (FIG. 5). These compounds were re-tested in a reconfirmation experiment using the same assay conditions. […] Confirmed hits were then tested in a secondary assay using Rluc alone to eliminate compounds that increase luciferase enzymatic activity or boost the luminescence signal. […]
(In general: An ELISA detects its analyte on a solid surface through an enzyme-linked reagent.)

In assay [2] the test system is p21-Rluc fusion protein. Description: High throughput p21 degradation assay (p21-Rluc reporter, cycloheximide). Particulars: MG132 25 μM, set at 100% stabilization. It is filed as cell-based, human.
Protocol: Stable cell lines from frozen vials were thawed and resuspended in phenol red-free DMEM (Wisent) supplemented with 10% NBCS (day 0). Two days after, cells were trypsinized and seeded at 2500 cells/well into white 384-well plates (BD Bioscience). Doxycyclin was added at 1 μg/ml into the culture medium in order to induce the expression of Rluc and/or p21-Rluc (day 2). Cells were incubated at 37° C. for 18 h. On day 3, 5 μl of cycloheximide was added into each well to reach a final concentration of 50 μg/ml. The proteasome inhibitor MG132 was added into few wells on each plate as positive control at a final concentration of 25 μM. […] The reaction was allowed to proceed for 5 minutes and luminescence was monitored using EnVision™ plate reader (Perkin Elmer) set to “Enhanced luminescence” mode.
To identify small molecules that lead to an increase in the expression levels of p21, a highly robust HTS-compatible cell-based assay using a reporter protein made of a fusion between the unstable p21 protein and Renilla luciferase (p21-Rluc) was designed. The assay relies on the generation of a fusion protein between p21 and a reporter protein that is quantifiable in a high throughput format. The genetically engineered chimeric protein should behave like the wild type p21 protein, such that the readout signal from the reporter moiety will reflect the regulation of p21. […]

As to `CC(C)C[C@@H](C=O)NC(=O)[C@H](CC(C)C)NC(=O)[C@H](CC(C)C)NC(=O)OCc1ccccc1` [MG-132] (Cbz-Leu-Leu-Leu-aldehyde), the “intracellular expression of endogenous p21 protein (ELISA)” value in assay [1] is recorded as “increase in the intracellular expression of the endogenous protein”. Also, the “mean increase of p21-Rluc signal by all positive controls across the screen” value in assay [2] is 3.062.
